One data set is described as follows: Thermoanalytical assay. Type of data set: physicochemical. How it is done:
Thermoanalytical assay of the product according to Example 1.
Phendiline starts to evaporate respectively to decompose at 150° C. and 98% mass change can be observed up to 250° C.

Data set [1] in a line: Solubility of phendiline hydrochloride in β-cyclodextrin solutions of various concentration. Type of data set: physicochemical. The note with it: 37° C.; for solubility thermodynamic at 3 h: water with beta-cyclodextrin, phendiline equivalents; for β-cyclodextrin mmole / phendiline mmole: 3 hours. How it is done: 0.22 g. (0.6 mmole) of phendiline hydrochloride is stirred at 37° C. for 3 hours in 3 ml. of water and in β-cyclodextrin solutions of various concentration by a magnetic stirrer at 150 rot./min rate. The concentration of the dissolved phendiline hydrochloride is determined by spectrophotometry and expressed in phendiline equivalents.

Data set [2] in a line: Resorption tests on Sartorius SM 16750 Resorption model, diffusion and resorption rate constants. The note with it: in vitro; for diffusion constant (Kd) from the intestine: resorption from the intestine. Type of data set: in vitro ADME. The protocol: (§1) The in vitro tests were justified by the fact that the measurements are much more reproducible than by carrying out the tests in vivo.
The resorption tests were performed on a Sartorius SM 16750 Resorption model, the membranes used were suitable for modelling the resorption from the stomach and from the intestine. On the basis of the test results the diffusion (Kd) and the resorption rate constant (Ki) were calculated for the test substances.

A short description of the next data set: Solubility in words. Type of data set: physicochemical.
The next data set can be described thus: Acute toxicity. As to conditions: mouse, in vivo, dose as phendiline active ingredient, 5% Tween 80; for LD50 at 24 h: observation time 24 hours.
The nature of data set [3]: Determination of dissolved (MG) and resorbed (Mi) active ingredient on Sartorius SM 16751 type model. As to conditions: 100. minute; segments of the gastro-intestinal system, in vitro; FIG. 1. Type of data set: in vitro ADME.
Description: as §1
The dissolution and the resorption are subsequent processes which depend greatly on each other. Under physiological conditions resorption is partially influenced by the pH relations at the place of the resorption and partially by the time spent by the pharmaceutical at the place of the resorption.
The average spent time in each segment of the gastro-intestinal system and the pH values are as follows:
The determination of the dissolved (MG) and the resorbed (Mi) active ingredient was performed on a Sartorius SM 16751 type Lose model [H. Stricker: Pharm. Ind. 33, 157 (1971); H. Sticker: Drugs in Germany 14, 93 (1971)].
The amount of the resorbed phendiline, phendiline-CD-complex as well as phendiline hydrochloride and phendiline-hydrochloride-CD-complex from the gastro-intestinal tract is shown in FIG. 2 where F stands for the resorbed amount of phendiline, F-CD stands for the resorbed amount of phendiline-cyclodextrine-complex, FHCl stands for the resorbed amount of phendiline-hydrochloride and FHCl-CD stands for the resorbed amount of phendiline-hydrochloride-cyclodextrine-complex.

The mark [4] stands for this setting: β-cyclodextrin 15 mg./ml. (13.2 mmole/l.).
The mark [5] stands for this setting: β-cyclodextrin 20 mg./ml. (17.6 mmole/l.).
[6] abbreviates: β-cyclodextrin 25 mg./ml. (22.0 mmole/l.).
Setting [7] is: β-cyclodextrin 30 mg./ml. (26.4 mmole/l.).

Values joined by “and” are separate entries in the source; they are usually repeats but may differ in a detail not shown here. Equal values may be shown once. Read-outs that look alike come from different tables or passages of the source.

Cyclodextrin yielded a decomposition temperature in “Thermoanalytical assay” (thermoanalytical assay) of 270 °C.

In the case of β-cyclodextrin, the “temperature of melting with decomposition” value in the data set “Thermoanalytical assay” (thermoanalytical assay) came out at 300 °C.

As a reminder, the thermodynamic solubility is solubility found after equilibrating the solid with the medium. One may read the LD50 as the dose expected to kill half of the subjects tested. Read a high LD50 as a less toxic substance. As to `CC(NCCC(c1ccccc1)c1ccccc1)c1ccccc1.Cl` (stereo not drawn) [phendiline hydrochloride, N-(1-phenylethyl)-3,3-diphenylpropylamine hydrochloride], the thermodynamic solubility at 3 h in data set [1] (setting [4]) was 4390 µg/mL and 13900 µM; in data set [1] (setting [5]) it was 5950 µg/mL and 18600 µM; in data set [1] (setting [6]), 6940 µg/mL and 22000 µM; in data set [1] (setting [7]), 7510 µg/mL and 23800 µM. In addition, the “β-cyclodextrin mmole / phendiline mmole” value in data set [1] (setting [4]) is 0.95; in data set [1] (setting [5]), 0.95; in data set [1] (setting [6]), 1.00; in data set [1] (setting [7]) it was 1.10. In data set [2], the “resorption rate constant (Ki) from the intestine” value is 0.0049 min⁻¹. Further, the “diffusion constant (Kd) from the intestine” value in data set [2] is given as 6.7 × 10^-4 cm^2 min^-1. For the same compound, in “Solubility in words”, the solubility in water entry is “extremely poor”. Further, the LD50 at 1 h in “Acute toxicity” (ip, intraperitoneal, observation time 1 hour) was 81.1 mg/kg. The 50% lethal dose (LD50) at 24 h in the data set “Acute toxicity” (po, per os) was 522 mg/kg.

For the compound `CC(NCCC(c1ccccc1)c1ccccc1)c1ccccc1` (stereo not drawn) [phendiline, N-(1-phenylethyl)-3,3-diphenylpropylamine], the “temperature at which it starts to evaporate respectively to decompose” value in the data set “Thermoanalytical assay” (thermoanalytical assay) worked out at 150 °C. The compound also showed a mass change in “Thermoanalytical assay” (up to 250° C.) of 98%. The same compound had an amount dissolved in data set [3] of 75 mg. Besides, in data set [2], the “resorption rate constant (Ki) from the intestine” value was 0.0051 min⁻¹ and the “diffusion constant (Kd) from the intestine” value is 6.9 × 10^-4 cm^2 min^-1. In the data set “Solubility in words”, the solubility in water result was “very poor”. For the same compound, the solubility in water result in the data set “Solubility in words” (listed as Phendiline) was “not soluble in water”. Also, the LD50 at 24 h in “Acute toxicity” (ip, intraperitoneal) amounted to 47.5 mg/kg. In addition, the LD50 at 72 h in “Acute toxicity” (po, per os, observation time 72 hours) came out at 512 mg/kg.
